# Experimental data: PMC8306477, “Neuroprotective Effect of Terpenoids Recovered from Olive Oil By-Products” (Foods, 2021)
# Where two headings read alike, the source gives them in different places. Marks after values point to notes of the source that are not given here.
# Columns and labels:
# [1] = ABTS•+ radical scavenging assay; settings: mean ± SD (n = 3); 45 min, 30 °C
# Protocol: Antioxidant activity of all olive leaves extracts was measured using the ABTS^•+ radical scavenging assay according to Re et al., (1999) with modifications. […] After this time, radical ABTS^•+ solution was diluted with the buffer (5 mM, pH 7.4) to adjust the absorbance to 0.700 ± 0.002 measured at 734 nm wavelength and 30 °C. The 96-well microplate containing 250 μL ABTS^•+ solution and 100 μL of olive leaves extract at six different concentrations (from 14.3 to 143 μg/mL EtOH/H2O (1:1, v/v)) was incubated in the dark at 30 °C. After 45 min, the absorbance at 734 nm was measured. Trolox and ascorbic acid were used as reference standards while rosemary extract was used as natural reference standard. All measurements were performed in triplicate. ABTS^•+ inhibition percentage from olive leaves extracts was calculated as follows:(3) %Inh=AABTScontrol−(Asample−Asample blank)/AABTS control×100 where AABTScontrol is the absorbance of ABTS^•+ radical in buffer at t = 0 min; Asample, is the absorbance of an ABTS^•+ solution mixed with extracts; and Asample blank is the absorbance of samples without ABTS^•+.
# [2] = ROS scavenging capacity, ORAC method; settings: mean ± SD (n = 3)
# Protocol: Oxygen radical absorbance capacity (ORAC) method was performed as reported by Ou et al. (2001). Briefly, 100 μL of the extract sample at different concentrations (5–50 μg/mL) in EtOH/H2O (1: 9, v/v), 100 μL of AAPH (590 mM) in PBS buffer (30 mM, pH = 7.5), 25 μL of fluorescein (10 μM) in PBS buffer, and 100 μL of PBS buffer were placed in a 96-well microplate. The fluorescence kinetic measurements were recorded at λexcitation = 485 nm and λemission = 530 nm at intervals of 5 min for a runtime of 60 min at 37 °C. Ascorbic acid was used as the reference standard. Each measurement was carried out in triplicate and the capacity of the extract for scavenging peroxyl radicals generated by spontaneous decomposition of AAPH was calculated through the inhibition percentage of the difference between the Area Under the Curve (AUC) of fluorescence decay in the presence (AUCsample) or absence (AUCcontrol) of the sample by Equation (4). (4) %Inh=AUCcontrol−AUCsample/AUCcontrol×100
# [3] = RNS scavenging capacity, nitric oxide radical (Griess) assay; settings: NO• scavenging; mean ± SD (n = 3)
# Protocol: RNS was evaluated by the nitric oxide (NO^•) radical scavenging assay of OLE, according to Ho et al. (2010), based on the reaction of Griess. The 96-well microplate filling distribution was as follows: 100 μL of extract sample at different concentrations (250–2500 μg/mL) in EtOH/H2O (1:3, v/v), and 50 μL of SNP (5 mM) in buffer (30 mM pH = 7.5). The mixture was incubated at room temperature for 2 h under direct light. Nitrile ion concentration was measured at […] after the addition of […] Ascorbic acid was used as the reference standard. Each measurement was carried out in triplicate and the capacity of the extract for scavenging NO^• radicals was calculated through inhibition percentage as described in Equation (3).
# [4] = PAMPA-BBB permeability of terpenes of SS adsorbate; assay type: in vitro ADME
# Protocol: Previously, the BBB solution was prepared by dissolving 8 mg of PBL and 4 mg of cholesterol in 600 μL n-dodecane. Ethanolic olive leaves extract was dissolved in buffer (5 mM pH 7.4) as an initial solution at 10 mg/mL (EtOH/buffer, 1:1, v/v). Then, the filter membrane of the donor microplate was impregnated with 5 μL of BBB solution and the acceptor microplate was filled with 350 μL of buffer. Then, 200 μL of initial solution was added to the donor microplate which was assembled like a sandwich over the acceptor microplate. The microplate was incubated in the dark for 4 h at 37 °C and continuous agitation. After the incubation process, 200 μL were taken from each microplate, placed into a vial, dried, and reconstituted in 50 μL of EtOH to obtain donor and acceptor solutions. Both solutions were injected in the GC-qTOF-MS system to identify and compare the compounds present in both microplates. […] CD(t) is compound concentration in the donor well at time t and CA(t) is compound concentration in the acceptor well at time t.
# [5] = parameters: method as in PMID 23565574; settings: BBB permeability of pharmacological drugs; cited from earlier work
# [6] = terpene within Sea Sand Adsorbate, 4 h, 37 °C, buffer pH 7.4, GC-qTOF-MS, read-out: PAMPA-BBB Log Pe (RSD %) (converted)
compound,measurement,setting,value
"Cc1c(C)c2c(c(C)c1O)CCC(C)(C(=O)O)O2 (racemic) [Trolox, (±)-6-Hydroxy-2,5,7,8-tetramethylchromane-2-carboxylic acid]",Antioxidant Capacity by ABTS IC50,[1],2.50 ± 0.02 ^r µg/mL
same,ROS IC50,[2],0.98 ± 0.11 ^c µg/mL
O=C1O[C@H]([C@@H](O)CO)C(O)=C1O [Ascorbic acid],Antioxidant Capacity by ABTS IC50,[1],25.00 ± 0.30 ^a µg/mL
same,RNS IC50,[3],1100.90 ± 13.96 ^b µg/mL
same,ROS IC50,[2],1.29 ± 0.09 ^b µg/mL
CC1(C)CC[C@]2(CO)CC[C@]3(C)C(=CC[C@@H]4[C@@]5(C)CC[C@H](O)C(C)(C)[C@@H]5CC[C@]43C)[C@@H]2C1 [Erythrodiol],Papp at 4 h,[4]; [6],0.575 ×10⁻⁶ cm/s
COc1ccc2c3c1O[C@H]1C[C@@H](O)C=C[C@@]31CCN(C)C2 [Galantamine],log Pe ± SD,[5],−5.35 ± 0.02 cm/s
O=c1c(O)c(-c2ccc(O)c(O)c2)oc2cc(O)cc(O)c12 [Quercetin],log Pe ± SD,[5],−7.02 ± 0.08 cm/s
CC(C)=CCC/C(C)=C/CC/C(C)=C/CC/C=C(\C)CC/C=C(\C)CCC=C(C)C [Squalene],Papp at 4 h,[4]; [6],13.2 ×10⁻⁶ cm/s
C[C@H]1[C@H](C)CC[C@]2(CO)CC[C@]3(C)C(=CC[C@@H]4[C@@]5(C)CC[C@H](O)C(C)(C)[C@@H]5CC[C@]43C)[C@H]12 [Uvaol],Papp at 4 h,[4]; [6],1.51 ×10⁻⁶ cm/s
Cc1c(C)c2c(c(C)c1O)CC[C@@](C)(CCC[C@H](C)CCC[C@H](C)CCCC(C)C)O2 [α-Tocopherol],Papp at 4 h,[4]; [6],1.15 ×10⁻⁶ cm/s
CC1(C)CC[C@]2(C)CC[C@]3(C)C(=CC[C@@H]4[C@@]5(C)CC[C@H](O)C(C)(C)[C@@H]5CC[C@]43C)[C@@H]2C1 [β-Amyrin],Papp at 4 h,[4]; pH 7.4,0.479 ×10⁻⁶ cm/s
CC[C@H](CC[C@@H](C)[C@H]1CC[C@H]2[C@@H]3CC=C4C[C@@H](O)CC[C@]4(C)[C@H]3CC[C@]12C)C(C)C [β-Sitosterol],Papp at 4 h,[4]; [6],0.912 ×10⁻⁶ cm/s
Cc1c(O)cc2c(c1C)O[C@](C)(CCC[C@H](C)CCC[C@H](C)CCCC(C)C)CC2 [γ-Tocopherol],Papp at 4 h,[4]; [6],8.91 ×10⁻⁶ cm/s
